Data: patent US20120202787A1, “Novel Heteroaryl Imidazoles And Heteroaryl Triazoles As Gamma-Secretase Modulators” (Pfizer Inc., priority 2009, published 2012)

Tested on: γ-secretase (production of amyloid beta protein Aβ (1-42))
Assay: Cell-based γ-secretase assay with ELISA readout (Aβ (1-42) production)
Set-up: species or system human WT-APP overexpressing CHO cells
Settings: Geometric mean of at least 2 determinations; Table 3; read-out: Aβ 42 IC50 (μM)*
Description: Cell-Based γ-Secretase Assay with ELISA Readout
The ability of compounds to modulate production of amyloid beta protein Aβ (1-42) was determined using human WT-APP overexpressing CHO cells. Cells were plated at 22,000 cells/100 μL well in 96 well tissue culture treated, clear plates (Falcon) in DMEM/F12 based medium and incubated for 24 hours at 37° C. Compounds for testing were diluted in 100% DMSO to achieve an eleven points, half log, dose response for IC50 determinations. Compounds were added in fresh medium to achieve 1% final DMSO. Appropriate vehicle and inhibitor controls were added to obtain maximum and minimum inhibition values for the assay before the plates were incubated for about 24 hours at 37° C.
Coating of ELISA assay plates was initiated by addition of 50 μL/well of an in-house Aβ (1-42) specific antibody at (4 μg/mL) in 0.1 M NaHCO3 (pH 9.0) into black 384-well Maxisorp® plates (Nunc) and incubated overnight at 4° C. The capture antibody was then aspirated from the ELISA assay plates and 100 μL/well of Blocking Buffer (Dulbecco's PBS, 1.5% BSA (Sigma A7030)) added. Ambient temperature incubation was allowed to proceed for a minimum of two hours before washing 2×100 μL with Wash Buffer (Dulbecco's PBS, 0.05% Tween 20). Assay Buffer (Dulbecco's PBS, 1.0% BSA (Sigma A7030), 0.05% Tween 20) 20 μL/well was then added.
After incubation overnight at 37° C., 5% CO2, 40 μL (in duplicate) of experimental conditioned media were transferred into wells of the blocked ELISA plates containing the capture antibody, followed by overnight incubation at 4° C. Cell toxicity was measured in the corresponding cells after removal of the media for the Aβ (1-42) assay by a colorimetric cell proliferation assay (CellTiter 96® AQueous One Solution Cell Proliferation Assay, Promega) according to the manufacturer's instructions.
After overnight incubation of the ELISA assay plates at 4° C., unbound Aβ peptides were removed thorough (4×100 μL) washes with Wash Buffer. Europium (Eu) labeled (custom labeled, Perkin Elmer) Aβ (1-16) 6e10 Monoclonal Antibody (Covance #SIG-39320 was added, (50 μL /well Eu-6e10 @ 1:5000, 20 uM EDTA) in Assay Buffer. Incubation at ambient temperature for a minimum of 2 hours was followed by (4×100 μL) washes with Wash Buffer, before 50 μL/well of Delfia Enhancement Solution (Perkin Elmer) was added. Following a one hour ambient temperature incubation, the plates were read on an EnVision plate reader (Perkin Elmer) using standard DELFIA TRF settings. Data analysis including inhibitory IC50 determination was performed using nonlinear regression fit analysis (in-house software) and the appropriate plate mean values for the maximum and minimum inhibition controls.

IC50 [µM]	Structure (SMILES)
0.411	COc1nc(C(=O)NC2COc3ccc(C(F)(F)F)c(F)c32)ccc1-n1cnc(C)c1 (stereo not drawn) [Example 54, N-[4-fluoro-5-(trifluoromethyl)-2,3-dihydro-1-benzofuran-3-yl]-6-methoxy-5-(4-methyl-1H-imidazol-1-yl)pyridine-2-carboxamide]
0.234	COc1nc(C(=O)NC2COc3ccc(Cl)c(C)c32)ccc1-n1cnc(C)c1 (stereo not drawn) [Example 51, N-(5-chloro-4-methyl-2,3-dihydro-1-benzofuran-3-yl)-6-methoxy-5-(4-methyl-1H-imidazol-1-yl)pyridine-2-carboxamide]
0.194	COc1nc(C(=O)NC2COc3ccc(Cl)c(F)c32)ccc1-n1cnc(C)c1 (stereo not drawn) [Example 49, N-[5-chloro-4-fluoro-2,3-dihydro-1-benzofuran-3-yl]-6-methoxy-5-(4-methyl-1H-imidazol-1-yl)pyridine-2-carboxamide]
0.373	COc1nc(C(=O)N[C@H]2COc3ccc(Cl)cc32)ccc1-n1cnc(C)c1 [Example 53, N-[(3R)-5-chloro-2,3-dihydro-1-benzofuran-3-yl]-6-methoxy-5-(4-methyl-1H-imidazol-1-yl)pyridine-2-carboxamide]
0.423	COc1nc(C(=O)NC2COc3cc(F)c(Cl)cc32)ccc1-n1cnc(C)c1 (stereo not drawn) [Example 55, N-[5-chloro-6-fluoro-2,3-dihydro-1-benzofuran-3-yl]-6-methoxy-5-(4-methyl-1H-imidazol-1-yl)pyridine-2-carboxamide]

Same assay, conditions: human WT-APP overexpressing CHO cells; Aβ (1-42) ELISA; about 24 hours at 37° C.; free base or salt; read-out: Aβ 42B IC50 (μM) (Geometric Mean of 2-8 Determinations)

Structure (SMILES)	IC50 [µM]
COc1nc(C(=O)NC(C)(C)c2ccc(F)cc2)ccc1-n1cnc(C)c1 [Example 32, N-[1-(4-fluorophenyl)-1-methylethyl]-6-methoxy-5-(4-methyl-1H-imidazol-1-yl)pyridine-2-carboxamide]	2.01
COc1nc(C(=O)NCC2(c3ccc(F)cc3)CCC2)cnc1-n1cnc(C)c1 [Example 11, N-{[1-(4-fluorophenyl)-cyclobutyl]methyl}-6-methoxy-5-(4-methyl-1H-imidazol-1-yl)pyrazine-2-carboxamide]	1.38
Cc1cn(-c2ncc(C(=O)NCC3(c4ccc(F)cc4)CC3)cc2Cl)cn1 [Example 35, 5-chloro-N-{[1-(4-fluorophenyl)cyclopropyl]-methyl}-6-(4-methyl-1H-imidazol-1-yl)nicotinamide]	5.77
COc1nc(C(=O)NC(C)(C)c2ccc(F)cc2)cnc1-n1cnc(C)c1 [Example 17, N-[1-(4-fluorophenyl)-1-methylethyl]-6-methoxy-5-(4-methyl-1H-imidazol-1-yl)pyrazine-2-carboxamide]	2.41
COc1cc(C(=O)NCc2sc3c(F)ccc(F)c3c2Cl)ncc1-n1cnc(C)c1 [Example 22, N-[(3-chloro-4,7-difluoro-1-benzothien-2-yl)methyl]-4-methoxy-5-(4-methyl-1H-imidazol-1-yl)pyridine-2-carboxamide]	> 15.8
COc1nc(C(=O)NC(C)(C)c2cccc(Cl)c2)cnc1-n1cnc(C)c1 [Example 15, N-[1-(3-chlorophenyl)-1-methylethyl]-6-methoxy-5-(4-methyl-1H-imidazol-1-yl)pyrazine-2-carboxamide]	1.82
COc1cc(C(=O)N2CC[C@H](Oc3ccccc3C(F)(F)F)C2)ncc1-n1cnc(C)c1 [Example 20, 4-methoxy-5-(4-methyl-1H-imidazol-1-yl)-2-({(3S)-3-[2-(trifluoromethyl)-phenoxy]pyrrolidin-1-yl}carbonyl)pyridine]	5.33
COc1nc(C(=O)N[C@@H]2CCc3ccc(Cl)cc32)ccc1-n1cnc(C)c1 [Example 39, N-[(1R)-6-chloro-2,3-dihydro-1H-inden-1-yl]-6-methoxy-5-(4-methyl-1H-imidazol-1-yl)pyridine-2-carboxamide]	1.34
COc1nc(C(=O)NCC2(c3ccc(F)cc3)CC2)cnc1-n1cnc(C)c1 [Example 6, N-{[1-(4-Fluorophenyl)cyclopropyl]methyl}-6-methoxy-5-(4-methyl-1H-imidazol-1-yl)pyrazine-2-carboxamide]	1.3
COc1nc(C(=O)NCC(C)(C)c2ccc(F)cc2)cnc1-n1cnc(C)c1 [Example 13, N-[2-(4-fluorophenyl)-2-methylpropyl]-6-methoxy-5-(4-methyl-1H-imidazol-1-yl)pyrazine-2-carboxamide]	1.36
COc1nc(C(=O)NCc2ccc(OC(F)(F)F)cc2)cnc1-n1cnc(C)c1 [Example 18, 6-methoxy-5-(4-methyl-1H-imidazol-1-yl)-N-[4-(trifluoromethoxy)benzyl]-pyrazine-2-carboxamide]	5.43

Continued, values first:

IC50 [µM]	Structure (SMILES)
0.535	COc1nc(C(=O)N2CC[C@H](Oc3ccccc3C(F)(F)F)C2)cnc1-n1cnc(C)c1 [Example 8, 3-methoxy-2-(4-methyl-1H-imidazol-1-yl)-5-({(3S)-3-[2-(trifluoromethyl)-phenoxy]pyrrolidin-1-yl}carbonyl)pyrazine]
0.332	COc1nc(C(=O)NCc2cccc(Cl)c2C)ccc1-n1cnc(C)c1 [Example 41, N-(3-chloro-2-methylbenzyl)-6-methoxy-5-(4-methyl-1H-imidazol-1-yl)pyridine-2-carboxamide]
0.643	COc1nc(C(=O)N2CC[C@@H](Oc3ccccc3C(F)(F)F)C2)cnc1-n1cnc(C)c1 [Example 9, 3-methoxy-2-(4-methyl-1H-imidazol-1-yl)-5-({(3R)-3-[2-(trifluoromethyl)-phenoxy]pyrrolidin-1-yl}carbonyl)pyrazine]
0.259	COc1nc(C(=O)N[C@H]2CCc3ccc(Cl)cc32)ccc1-n1cnc(C)c1 [Example 40, N-[(1S)-6-chloro-2,3-dihydro-1H-inden-1-yl]-6-methoxy-5-(4-methyl-1H-imidazol-1-yl)pyridine-2-carboxamide]
0.319	COc1nc(C(=O)NCc2ccc(F)c(C3CC3)c2)ccc1-n1cnc(C)c1 [Example 42, N-(3-cyclopropyl-4-fluorobenzyl)-6-methoxy-5-(4-methyl-1H-imidazol-1-yl)pyridine-2-carboxamide]
0.524	COc1nc(C(=O)NCCc2nc3ccc(Cl)cc3o2)ccc1-n1cnc(C)c1 [Example 26, N-[2-(6-chloro-1,3-benzoxazol-2-yl)ethyl]-6-methoxy-5-(4-methyl-1H-imidazol-1-yl)pyridine-2-carboxamide]
0.207	COc1nc(C(=O)N2CC[C@H](Oc3ccccc3C(F)(F)F)C2)ccc1-n1cnc(C)c1 [Example 36, 2-methoxy-3-(4-methyl-1H-imidazol-1-yl)-6-({(3S)-3-[2-(trifluoromethyl)-phenoxy]pyrrolidin-1-yl}carbonyl)pyridine]
0.502	COc1nc(C(=O)NCC(C)(C)c2ccc(F)cc2)ccc1-n1cnc(C)c1 [Example 29, N-[2-(4-fluorophenyl)-2-methylpropyl]-6-methoxy-5-(4-methyl-1H-imidazol-1-yl)pyridine-2-carboxamide]
0.216	COc1nc(C(=O)NCc2cc(Cl)cc(Cl)c2)ccc1-n1cnc(C)c1 [Example 43, N-(3,5-dichlorobenzyl)-6-methoxy-5-(4-methyl-1H-imidazol-1-yl)pyridine-2-carboxamide]
0.827	COc1nc(C(=O)NCC2(c3cccc(C)c3)CCC2)cnc1-n1cnc(C)c1 [Example 10, 6-methoxy-5-(4-methyl-1H-imidazol-1-yl)-N-{[1-(3-methylphenyl)cyclobutyl]-methyl}pyrazine-2-carboxamide]
0.726	COc1nc(C(=O)NCC2CCCC2)ccc1-n1cnc(C)c1 [Example 33, N-(cyclopentylmethyl)-6-methoxy-5-(4-methyl-1H-imidazol-1-yl)pyridine-2-carboxamide]
